According to publication PMC9805938 (Journal of Pharmaceutical Analysis, 2020):

Biological target: T1, transforming growth factor-β receptor type-I (TGF-β RI) (Homo sapiens, UniProt P36897)
T1 sequence (P36897 34-503): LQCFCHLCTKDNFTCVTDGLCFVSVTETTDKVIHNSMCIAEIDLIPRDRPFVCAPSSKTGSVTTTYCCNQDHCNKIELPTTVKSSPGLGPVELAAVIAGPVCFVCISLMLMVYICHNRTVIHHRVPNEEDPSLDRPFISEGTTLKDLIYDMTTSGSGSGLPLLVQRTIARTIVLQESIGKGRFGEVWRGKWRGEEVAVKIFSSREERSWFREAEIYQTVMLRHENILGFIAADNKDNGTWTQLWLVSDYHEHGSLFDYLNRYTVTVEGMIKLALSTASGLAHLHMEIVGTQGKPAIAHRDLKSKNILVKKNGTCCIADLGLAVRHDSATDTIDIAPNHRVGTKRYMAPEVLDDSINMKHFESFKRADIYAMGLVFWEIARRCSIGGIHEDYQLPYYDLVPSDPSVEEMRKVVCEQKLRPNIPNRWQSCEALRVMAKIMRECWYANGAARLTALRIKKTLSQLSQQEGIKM
Type: biochemical

IC50: 2210 ± 266 nM
SMILES: Oc1ccc(/C=C/c2cc(O)cc(O)c2)cc1 [compound 12, Resveratrol]
